Test [1] can be described thus: Cytotoxicity against human SW1736 cells by SRB assay. The class given is functional, cell-based. Conditions: SW-1736.
The next test deals with A549. Nature of the test: Induction of apoptosis in human A549 cells by acridine orange/ethidium bromide staining. The class given is functional, cell-based.
Test [2] is described as follows: Cytotoxicity against human A253 cells by SRB assay. The class given is functional, cell-based. Background: In SRB staining, fixed cells bind dye roughly in proportion to their protein.
The nature of test [3]: Cytotoxicity against human Lipo cells by SRB assay. The class given is functional, cell-based.
The test system of the next test is 8505C. Nature of the test: Cytotoxicity against human 8505C cells by SRB assay. Type of test: functional, cell-based.
In another test the test system is NIH3T3. Put plainly: Cytotoxicity against mouse NIH/3T3 cells by SRB assay. Type of test: cell-based.
Test [4] can be described thus: Cytotoxicity against human DLD1 cells by SRB assay. The class given is functional, cell-based. Conditions: DLD-1.
The test system of test [5] is MCF7. Nature of the test: Induction of apoptosis in human MCF7 cells at 12 uM by acridine orange/ethidium bromide staining. Type of test: functional, cell-based.
Test [6] can be described thus: Cytotoxicity against human 518A2 cells by SRB assay. The class given is functional, cell-based.
The subject of test [7] is MCF7. Nature of the test: Cytotoxicity against human MCF7 cells by SRB assay. Type of test: functional, cell-based.
For test [8], the system named is MCF7. Nature of the test: Induction of apoptosis in human MCF7 cells at 40 uM by acridine orange/ethidium bromide staining. The class given is functional, cell-based.
Test [9] has as its system MCF7. Put plainly: Induction of apoptosis in human MCF7 cells at 20 uM by acridine orange/ethidium bromide staining. Type of test: functional, cell-based.
Test [10] concerns MCF7. Put plainly: Induction of apoptosis in human MCF7 cells at 30 uM by acridine orange/ethidium bromide staining. Type of test: functional, cell-based.

Broadly, the IC50 is the concentration that inhibits the measured activity by half. A high value points to a need for much substance.

The structures appear in SMILES notation. Active and inactive are the calls of the source. The calls are words filed in the database; no cut-off is given here.

Regarding `COC(=O)[C@@]1(C)CC[C@]2(C)CC[C@]3(C)C(=CC(=O)[C@@H]4[C@@]5(C)CC[C@H](O[C@H]6O[C@H](CO)[C@@H](O)[C@H](O)[C@@H]6O)C(C)(C)[C@@H]5CC[C@]43C)[C@@H]2C1`, the IC50 in test [1] was 11.2 µM; in test [2], 13.2 µM; in test [3], over 30 µM; in the test on 8505C it was 22 µM; in the test on NIH3T3 it was over 30 µM; in test [4], over 30 µM. The IC50 in test [6] is 25.9 µM; in the test with MCF7 [7] it was 9.48 µM. Further, the outcome in the test on A549 and with MCF7 [5] was Active.

For the compound `COC(=O)[C@@]1(C)CC[C@]2(C)CC[C@]3(C)C(=CC(=O)[C@@H]4[C@@]5(C)CC[C@H](O[C@H]6OC[C@@H](O)[C@@H](O)[C@@H]6O)C(C)(C)[C@@H]5CC[C@]43C)[C@@H]2C1`, the IC50 (in test [1]; in test [2]; in test [3]; in the test with 8505C; in the test on NIH3T3; in test [4]) was over 30 µM each time. Also, the IC50 (in test [6]; with MCF7 [7]) was over 30 µM each time. The outcome with A549 and in the test on MCF7 [8] was Active.

For the compound `COC(=O)[C@@]1(C)CC[C@]2(C)CC[C@]3(C)C(=CC(=O)[C@@H]4[C@@]5(C)CC[C@H](O[C@@H]6OC[C@H](O)[C@H](O)[C@H]6O)C(C)(C)[C@@H]5CC[C@]43C)[C@@H]2C1`, the half-inhibitory concentration (IC50) (in [1]; in [2]; in test [3]; in the test on 8505C; with NIH3T3; in test [4]) was over 30 µM throughout. The IC50 in [6] was over 30 µM; with MCF7 [7], 16.7 µM. The outcome in the test with A549 and in the test on MCF7 [9] was Active.

For `COC(=O)[C@@]1(C)CC[C@]2(C)CC[C@]3(C)C(=CC(=O)[C@@H]4[C@@]5(C)CC[C@H](O[C@@H]6OC[C@@H](O)[C@H](O)[C@H]6O)C(C)(C)[C@@H]5CC[C@]43C)[C@@H]2C1`, the IC50 (in test [1]; in test [2]; in test [3]; in the test on 8505C; in the test with NIH3T3; in [4]) was over 30 µM throughout. Also, the half-inhibitory concentration (IC50) (in [6]; in the test with MCF7 [7]) was over 30 µM throughout. Further, the outcome in the test on A549 and in the test with MCF7 [8] was Active.

For the compound `COC(=O)[C@@]1(C)CC[C@]2(C)CC[C@]3(C)C(=CC(=O)[C@@H]4[C@@]5(C)CC[C@H](O[C@@H]6O[C@H](CO)[C@H](O)[C@H](O)[C@H]6O)C(C)(C)[C@@H]5CC[C@]43C)[C@@H]2C1`, the half-inhibitory concentration (IC50) came to 21.4 µM in test [1]; 19.7 µM in [2]; 23.2 µM in test [3]; 22.8 µM in the test on 8505C; 23.4 µM in the test on NIH3T3; 23.2 µM in test [4]. For the same compound, the IC50 came to 23.3 µM in [6] and 20.1 µM in the test on MCF7 [7]. Besides, the result with A549 and in the test with MCF7 [10] was Active.

On to `COC(=O)[C@@]1(C)CC[C@]2(C)CC[C@]3(C)C(=CC(=O)[C@@H]4[C@@]5(C)CC[C@H](O)C(C)(C)[C@@H]5CC[C@]43C)[C@@H]2C1`, for which the result in the test with A549 and with MCF7 [10] was Active.

With `COC(=O)[C@@]1(C)CC[C@]2(C)CC[C@]3(C)C(=CC(=O)[C@@H]4[C@@]5(C)CC[C@H](O[C@H]6O[C@@H](C)[C@H](O)[C@@H](O)[C@H]6O)C(C)(C)[C@@H]5CC[C@]43C)[C@@H]2C1`, the IC50 in [1] is 23.9 µM; in test [2], 27.2 µM; in test [3], 28.4 µM; in the test with 8505C, over 30 µM; in the test on NIH3T3, over 30 µM; in [4] it was over 30 µM. Moreover, the IC50 is 28.9 µM in test [6] and over 30 µM in the test with MCF7 [7]. Besides, the result in the test on A549 and in the test on MCF7 [8] was Active.

For the compound `COC(=O)[C@@]1(C)CC[C@]2(C)CC[C@]3(C)C(=CC(=O)[C@@H]4[C@@]5(C)CC[C@H](O[C@@H]6O[C@@H](C)[C@H](O)[C@@H](O)[C@H]6O)C(C)(C)[C@@H]5CC[C@]43C)[C@@H]2C1`, the half-inhibitory concentration (IC50) (in test [1]; in test [2]; in test [3]; in the test with 8505C; with NIH3T3; in test [4]) was over 30 µM throughout. Moreover, the IC50 in [6] is over 30 µM; with MCF7 [7] it was 19.6 µM. For the same compound, the outcome with A549 and with MCF7 [10] was Active.

Source of the values: ChEMBL document CHEMBL3102762, “A "natural" approach: synthesis and cytoxicity of monodesmosidic glycyrrhetinic acid glycosides” (Eur J Med Chem, 2014).
